Experiments:
[1] = 1- and 2-week accelerated stability of CPMM (~0.3 mg/mL) in aqueous pH buffer media, HPLC purity; type: physicochemical; conditions: for CPMM % Purity: t = 0
Procedure: The aqueous CPMM pH 1-9 samples described above were diluted as necessary to approximately 0.3 mg/mL and placed on accelerated stability at 25° C./60% relative humidity and 40° C./75% relative humidity conditions for two weeks. Samples were pulled at t=0, 1, and 2 weeks from set-up, and analyzed by HPLC. Samples were diluted to approximately 0.3 mg/mL, which well below the HPLC method nominal concentration, due to concerns of precipitation during the two week stability study. The injection volume was increased to compensate for the lower drug concentration in solution. The change in CPMM purity over the study duration is listed in Table 3 and plotted in FIGS. 3-5.
The pH 1 sample was placed on stability at a non-diluted concentration due to an error. This sample was re-diluted at the one-week time point to match the concentration in the pH 2-9 samples and re-placed on stability. The pH 9 sample results were not included in FIGS. 3-5 due to excessive degradation and for easier visual assessment over the more relevant pH 2-8 range.

[2] = Binary excipient screening: stability of CPMM 1 mg/mL in IV-compatible excipient solutions in 10 mM pH 3 phosphate buffer; type: physicochemical; conditions: for CPMM % Purity: t = 0
Procedure: CPMM was evaluated for compatibility with excipients that are suitable for IV administration. A buffer solution (phosphate at pH 3) was selected as the diluent for excipient screening studies. […] CPMM was solubilized in each excipient solution at 1 mg/mL.
While CPMM completely dissolved in the control sample within several minutes, many of the excipient solutions required overnight storage at 5° C. to solubilize the drug.
Each excipient sample solution was placed on a two-week stability study at 25° C./60% relative humidity and 40° C./75% relative humidity, and analyzed for CPMM purity at t=0, 1, and 2 weeks by comparing individual samples to their respective excipient blank solution.

## COC(=O)C1(OC(=O)c2cncn2[C@H](C)c2ccccc2)CC1 [CPMM, 1-(methoxycarbonyl)cyclopropyl-1-[(1R)-1-phenylethyl]-1H-imidazole-5-carboxylate]
[1]; 50 mM buffer pH 2 (Phosphoric Acid)
  CPMM % Purity: 99.39%
[1]; 50 mM buffer pH 3 (Phosphoric Acid)
  CPMM % Purity: 99.33%
[1]; 50 mM buffer pH 4 (Citric Acid)
  CPMM % Purity: 98.59%
[1]; 50 mM buffer pH 5 (Citric Acid)
  CPMM % Purity: 97.77%
[1]; 50 mM buffer pH 6 (Citric Acid)
  CPMM % Purity: 97.55%
[1]; 50 mM buffer pH 7 (Phosphoric Acid)
  CPMM % Purity: 98.16%
[1]; 50 mM buffer pH 8 (Phosphoric Acid)
  CPMM % Purity: 98.32%
[1]; 50 mM buffer pH 9 (Boric Acid)
  CPMM % Purity: 94.98%
[1]; pH 5 (Citric Acid), 25° C./60% RH, t = 1 week
  Change in CPMM % Purity: −0.62%
[1]; pH 5 (Citric Acid), 25° C./60% RH, t = 2 week
  Change in CPMM % Purity: −1.06%
[1]; pH 5 (Citric Acid), 40° C./75% RH, t = 1 week
  Change in CPMM % Purity: −2.16%
[1]; pH 5 (Citric Acid), 40° C./75% RH, t = 2 week
  Change in CPMM % Purity: −3.48%
[1]; pH 6 (Citric Acid), 25° C./60% RH, t = 1 week
  Change in CPMM % Purity: −0.33%
[1]; pH 6 (Citric Acid), 25° C./60% RH, t = 2 week
  Change in CPMM % Purity: −0.55%
[1]; pH 6 (Citric Acid), 40° C./75% RH, t = 1 week
  Change in CPMM % Purity: −2.72%
[1]; pH 6 (Citric Acid), 40° C./75% RH, t = 2 week
  Change in CPMM % Purity: −3.49%
[1]; pH 7 (Phosphoric Acid), 25° C./60% RH, t = 1 week
  Change in CPMM % Purity: −0.39%
[1]; pH 7 (Phosphoric Acid), 25° C./60% RH, t = 2 week
  Change in CPMM % Purity: −0.96%
[2]; Ascorbic Acid 0.5% in pH 3 buffer, 1 week 25° C./60% RH
  Change in CPMM % Purity: −14.4%
[2]; Ascorbic Acid 0.5% in pH 3 buffer, 1 week 40° C./75% RH
  Change in CPMM % Purity: −31.6%
[2]; Ascorbic Acid 0.5% in pH 3 buffer, 2 weeks 25° C./60% RH
  Change in CPMM % Purity: −26.4%
[2]; Ascorbic Acid 0.5% in pH 3 buffer, 2 weeks 40° C./75% RH
  Change in CPMM % Purity: −49.8%
[2]; Ascorbic Acid 0.5% in pH 3 buffer
  CPMM % Purity: 97.6%
[2]; Ascorbic Acid/Edetate Disodium Dihydrate 0.5%/0.05% in pH 3 buffer, 1 week 25° C./60% RH
  Change in CPMM % Purity: −2.2%
[2]; Ascorbic Acid/Edetate Disodium Dihydrate 0.5%/0.05% in pH 3 buffer, 1 week 40° C./75% RH
  Change in CPMM % Purity: −9.8%
[2]; Ascorbic Acid/Edetate Disodium Dihydrate 0.5%/0.05% in pH 3 buffer, 2 weeks 25° C./60% RH
  Change in CPMM % Purity: −4.2%
[2]; Ascorbic Acid/Edetate Disodium Dihydrate 0.5%/0.05% in pH 3 buffer, 2 weeks 40° C./75% RH
  Change in CPMM % Purity: −17.8%
[2]; Ascorbic Acid/Edetate Disodium Dihydrate 0.5%/0.05% in pH 3 buffer
  CPMM % Purity: 99.4%
[2]; Control: Water, 1 week 25° C./60% RH
  Change in CPMM % Purity: −0.9%
[2]; Control: Water, 1 week 40° C./75% RH
  Change in CPMM % Purity: −3.4%
[2]; Control: Water
  CPMM % Purity: 99.4%
[2]; Control: pH 3 Buffer, 1 week 25° C./60% RH
  Change in CPMM % Purity: −1.6%
[2]; Control: pH 3 Buffer, 1 week 40° C./75% RH
  Change in CPMM % Purity: −5.3%
[2]; Control: pH 3 Buffer, 2 weeks 25° C./60% RH
  Change in CPMM % Purity: −2.6%
[2]; Control: pH 3 Buffer, 2 weeks 40° C./75% RH
  Change in CPMM % Purity: −9.2%
[2]; Control: pH 3 Buffer
  CPMM % Purity: 99.5%
[2]; Dextrose 5% in pH 3 buffer, 1 week 25° C./60% RH
  Change in CPMM % Purity: −1.5%
[2]; Dextrose 5% in pH 3 buffer, 1 week 40° C./75% RH
  Change in CPMM % Purity: −5.2%
[2]; Dextrose 5% in pH 3 buffer, 2 weeks 25° C./60% RH
  Change in CPMM % Purity: −2.5%
[2]; Dextrose 5% in pH 3 buffer, 2 weeks 40° C./75% RH
  Change in CPMM % Purity: −9.0%
[2]; Dextrose 5% in pH 3 buffer
  CPMM % Purity: 99.4%
[2]; Ethanol 10% in pH 3 buffer, 1 week 25° C./60% RH
  Change in CPMM % Purity: −1.1%
[2]; Ethanol 10% in pH 3 buffer, 1 week 40° C./75% RH
  Change in CPMM % Purity: −3.2%
[2]; Ethanol 10% in pH 3 buffer, 2 weeks 25° C./60% RH
  Change in CPMM % Purity: −3.1%
[2]; Ethanol 10% in pH 3 buffer, 2 weeks 40° C./75% RH
  Change in CPMM % Purity: −7.0%
[2]; Ethanol 10% in pH 3 buffer
  CPMM % Purity: 99.5%
[2]; Glycerol 10% in pH 3 buffer, 1 week 25° C./60% RH
  Change in CPMM % Purity: −1.3%
[2]; Glycerol 10% in pH 3 buffer, 1 week 40° C./75% RH
  Change in CPMM % Purity: −4.7%
[2]; Glycerol 10% in pH 3 buffer, 2 weeks 25° C./60% RH
  Change in CPMM % Purity: −3.6%
[2]; Glycerol 10% in pH 3 buffer, 2 weeks 40° C./75% RH
  Change in CPMM % Purity: −9.8%
[2]; Glycerol 10% in pH 3 buffer
  CPMM % Purity: 99.4%
[2]; HPβCD 10% in pH 3 buffer, 1 week 25° C./60% RH
  Change in CPMM % Purity: −0.4%
[2]; HPβCD 10% in pH 3 buffer, 1 week 40° C./75% RH
  Change in CPMM % Purity: −1.6%
[2]; HPβCD 10% in pH 3 buffer, 2 weeks 25° C./60% RH
  Change in CPMM % Purity: −0.6%
[2]; HPβCD 10% in pH 3 buffer, 2 weeks 40° C./75% RH
  Change in CPMM % Purity: −2.5%
[2]; HPβCD 10% in pH 3 buffer
  CPMM % Purity: 99.4%
[2]; KCl 5% in pH 3 buffer, 1 week 25° C./60% RH
  Change in CPMM % Purity: −1.3%
[2]; KCl 5% in pH 3 buffer, 1 week 40° C./75% RH
  Change in CPMM % Purity: −4.8%
[2]; KCl 5% in pH 3 buffer, 2 weeks 25° C./60% RH
  Change in CPMM % Purity: −2.2%
[2]; KCl 5% in pH 3 buffer, 2 weeks 40° C./75% RH
  Change in CPMM % Purity: −8.2%
[2]; KCl 5% in pH 3 buffer
  CPMM % Purity: 99.4%
[2]; Lutrol F68 1% in pH 3 buffer, 1 week 25° C./60% RH
  Change in CPMM % Purity: −1.6%
[2]; Lutrol F68 1% in pH 3 buffer, 1 week 40° C./75% RH
  Change in CPMM % Purity: −5.2%

Source: patent publication US20170224662A1 (priority 2016, published 2017)
